Results: ChEMBL document CHEMBL4813971, “Development of novel benzofuran-based SLC-0111 analogs as selective cancer-associated carbonic anhydrase isoform IX inhibitors” (Eur J Med Chem, 2021)
pIC50, pKi: −log10 of the molar value.

Tests used:
Carbonic anhydrase 9 [1] = target: T1, Carbonic anhydrase 9 (Homo sapiens, UniProt Q16790); assay: Inhibition of human CA9 by stopped- flow CO2 hydration assay
Carbonic anhydrase 9 [2] = target: T1, Carbonic anhydrase 9; assay: Inhibition of human CA9 preincubated for 15 mins by phenol red dye based stopped flow CO2 hydration assay
Carbonic anhydrase 1 = Carbonic anhydrase 1 (Homo sapiens, UniProt P00915); assay: Inhibition of human CA1 by stopped- flow CO2 hydration assay
MDA-MB-231 = assay: Antiproliferative activity against human MDA-MB-231 cells incubated for 2 days by MTT assay; conditions: MDA-MB-231, 48 h
MCF7 = assay: Antiproliferative activity against human MCF7 cells incubated for 2 days by MTT assay; conditions: MCF7, 48 h

Carbonic anhydrase 1, sequence (P00915 whole entry): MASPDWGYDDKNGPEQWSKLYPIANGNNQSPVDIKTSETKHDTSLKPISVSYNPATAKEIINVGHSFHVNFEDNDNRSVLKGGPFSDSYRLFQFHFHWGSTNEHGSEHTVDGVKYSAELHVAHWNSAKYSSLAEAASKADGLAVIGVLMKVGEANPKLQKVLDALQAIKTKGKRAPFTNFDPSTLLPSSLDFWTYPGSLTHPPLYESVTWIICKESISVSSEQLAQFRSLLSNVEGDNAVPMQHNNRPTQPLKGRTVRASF

Row | pKi (Carbonic anhydrase 9 [1]) | Compound | other results
1 | 7.17 | Cc1c(NC(=O)Nc2ccccc2S(N)(=O)=O)oc2ccccc12 | 
2 |  | Cc1ccc(S(=O)(=O)C/C(=N\Nc2ccc(S(N)(=O)=O)cc2)c2cc3cc(Br)ccc3o2)cc1 | pKi (Carbonic anhydrase 9 [2]): 8.00
3 | 7.46 | Cc1c(NC(=O)Oc2ccc(S(N)(=O)=O)cc2)oc2ccccc12 | 
4 | 6.25 | Cc1noc(NS(=O)(=O)c2ccc(NC(=O)Nc3oc4ccccc4c3C)cc2)c1C | pKi (Carbonic anhydrase 1): < 4.00
5 | 8.08 | Cc1ccc(NC(=O)Nc2oc3ccccc3c2C)cc1S(N)(=O)=O | pIC50 (MDA-MB-231): 5.20; pIC50 (MCF7): 5.19
6 | 7.64 | NS(=O)(=O)c1cc(S(N)(=O)=O)c(NC(=O)Nc2cc3cc(Br)ccc3o2)cc1Cl | 
7 |  | C/C(=N\Nc1ccc(S(N)(=O)=O)cc1)c1cc2cc(Br)ccc2o1 | pKi (Carbonic anhydrase 9 [2]): 7.56
8 | 7.45 | NS(=O)(=O)c1ccccc1NC(=O)Nc1cc2cc(Br)ccc2o1 | 
9 | 7.69 | NS(=O)(=O)c1cccc(NC(=O)Nc2cc3cc(Br)ccc3o2)c1 | 
10 | 7.98 | Cc1c(NC(=O)Nc2ccc(S(N)(=O)=O)cc2)oc2ccccc12 | 
11 | 8.15 | NS(=O)(=O)c1ccc(NC(=O)Nc2cc3cc(Br)ccc3o2)cc1 | 
12 | 8.12 | Cc1c(NC(=O)NCCc2ccc(S(N)(=O)=O)cc2)oc2ccccc12 | 
13 | 7.27 | Cc1c(NC(=O)Nc2cc(Cl)c(S(N)(=O)=O)cc2S(N)(=O)=O)oc2ccccc12 | 
14 | 5.64 | Cc1noc(NS(=O)(=O)c2ccc(NC(=O)Nc3cc4cc(Br)ccc4o3)cc2)c1C | pKi (Carbonic anhydrase 1): < 4.00
15 | 6.19 | Cc1c(NC(=O)Nc2ccc(S(=O)(=O)Nc3nccs3)cc2)oc2ccccc12 | 
16 | 7.90 | Cc1c(NC(=O)NNC(=O)c2ccc(S(N)(=O)=O)cc2)oc2ccccc12 | 
17 | 8.74 | NS(=O)(=O)c1ccc(C(=O)NNC(=O)Nc2cc3cc(Br)ccc3o2)cc1 | 
18 | 8.26 | Cc1ccc(NC(=O)Nc2cc3cc(Br)ccc3o2)cc1S(N)(=O)=O | pIC50 (MDA-MB-231): 4.85; pIC50 (MCF7): 4.86
19 | 7.60 | Cc1c(NC(=O)Nc2cccc(S(N)(=O)=O)c2)oc2ccccc12 | 
20 | 6.03 | O=C(Nc1ccc(S(=O)(=O)Nc2nccs2)cc1)Nc1cc2cc(Br)ccc2o1 | pKi (Carbonic anhydrase 1): < 4.00
